Data from patent US11230541B2, “Heterocyclic compound” (Takeda Pharmaceutical Company Limited, priority 2017, dated 2022).

biological target: T1, NMDA receptor composed of four subunits including 2 sets of heterodimers of NR1 and NR2B (Homo sapiens, UniProt Q13224); test: NR2B Ca2+ influx assay (FLIPR, Fluo-4) in HEK293 cells expressing human GRIN1 and GRIN2B; type: cell-based; conditions: HEK293, 10 μM final compound concentration, glutamic acid/glycine-induced Ca2+ influx, read-out: inhibitory rate (10 μM compound concentration)
T1 construct: host or cells: HEK293 (tetracycline-induced expression)
T1 sequence (Q13224 27-1484, other chains not shown): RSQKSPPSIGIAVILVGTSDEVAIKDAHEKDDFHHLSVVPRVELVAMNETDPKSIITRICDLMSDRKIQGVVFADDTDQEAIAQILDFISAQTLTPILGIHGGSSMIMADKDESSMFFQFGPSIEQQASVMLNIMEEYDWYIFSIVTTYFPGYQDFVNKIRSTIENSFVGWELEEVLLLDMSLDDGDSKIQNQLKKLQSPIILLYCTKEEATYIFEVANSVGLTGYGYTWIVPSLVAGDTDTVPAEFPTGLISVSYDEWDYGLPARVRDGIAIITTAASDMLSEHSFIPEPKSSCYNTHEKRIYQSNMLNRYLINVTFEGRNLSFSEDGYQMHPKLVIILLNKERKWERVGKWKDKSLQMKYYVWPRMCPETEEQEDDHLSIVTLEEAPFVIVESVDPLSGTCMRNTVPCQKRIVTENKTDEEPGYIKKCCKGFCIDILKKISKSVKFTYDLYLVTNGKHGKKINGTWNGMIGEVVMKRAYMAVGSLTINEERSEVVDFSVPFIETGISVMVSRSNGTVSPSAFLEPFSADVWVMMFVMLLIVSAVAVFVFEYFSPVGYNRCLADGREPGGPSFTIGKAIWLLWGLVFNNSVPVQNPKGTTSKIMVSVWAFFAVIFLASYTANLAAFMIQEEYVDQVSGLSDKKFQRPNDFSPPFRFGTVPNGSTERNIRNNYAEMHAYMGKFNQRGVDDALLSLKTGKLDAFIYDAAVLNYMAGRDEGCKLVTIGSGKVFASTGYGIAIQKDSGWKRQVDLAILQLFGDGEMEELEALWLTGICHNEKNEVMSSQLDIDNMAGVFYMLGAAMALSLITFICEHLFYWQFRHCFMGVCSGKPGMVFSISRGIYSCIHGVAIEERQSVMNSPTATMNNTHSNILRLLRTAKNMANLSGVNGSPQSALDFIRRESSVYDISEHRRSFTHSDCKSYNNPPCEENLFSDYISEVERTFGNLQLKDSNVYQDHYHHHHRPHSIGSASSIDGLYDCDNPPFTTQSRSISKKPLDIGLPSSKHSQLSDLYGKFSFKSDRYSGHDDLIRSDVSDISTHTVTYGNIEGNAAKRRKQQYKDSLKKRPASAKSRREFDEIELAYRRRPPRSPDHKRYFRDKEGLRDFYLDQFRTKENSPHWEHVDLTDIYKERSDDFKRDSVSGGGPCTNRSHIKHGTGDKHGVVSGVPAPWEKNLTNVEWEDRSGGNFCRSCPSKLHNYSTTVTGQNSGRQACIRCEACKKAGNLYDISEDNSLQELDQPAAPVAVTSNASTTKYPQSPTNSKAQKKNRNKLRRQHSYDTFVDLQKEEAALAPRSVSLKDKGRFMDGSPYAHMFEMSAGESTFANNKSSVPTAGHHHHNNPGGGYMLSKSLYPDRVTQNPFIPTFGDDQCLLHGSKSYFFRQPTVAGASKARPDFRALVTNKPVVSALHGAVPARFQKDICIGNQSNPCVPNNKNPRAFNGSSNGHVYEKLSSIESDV
Source text: To confirm the “antagonistic action on an NMDA receptor containing the NR2B subunit” of the compound of the present invention, human embryonic kidney cell expressing the “NMDA receptor composed of four subunits including 2 sets of heterodimers of NR1 and NR2B”, specifically HEK293 cell expressing human glutamate ionotropic receptor NMDA type subunit 1 (GRIN1) and human glutamate ionotropic receptor NMDA type subunit 2B (GRIN2B), was used and the activation suppressive effect on the receptors was measured.
As an index of the NMDA receptor activation, intracellular calcium ion (Ca^2+) influx caused by the binding of glycine and glutamic acid with NR1 and NR2B, respectively, was used. HEK293 cells were purchased from ChanTest. The cells were cultured in a DMEM/F-12 (COSMO BIO, 10-092-CM) medium added with 10% FBS′(fetal bovine serum, AusGene), 100 units/mL penicillin, 100 μg/mL streptomycin, 500 μg/mL neomycin, 100 μg/mL Zeocin, 5 μg/mL Blasticidin at 37° C., 5% CO2. The cells were detached from flask with trypsin the day before the assay, suspended in a seeding medium (DMEM (Invitrogen, 31053) added with 10% FBS, 100 units/mL penicillin, 100 μg/mL streptomycin) at 8×10^5 cells/mL, seeded by 25 μL per well in a 384-well plate (Falcon, 356663) at 20000 cells/well, and cultured overnight in an incubator. On the day of the assay, tetracycline (Wako Pure Chemical Industries, Ltd., 209-16561) was diluted with the seeding medium at 2 μg/mL, added at […] to the plate seeded with the cells, and cultured for 2 hr in an incubator. Thereafter, the medium was removed, and the cells were washed with 50 μL/well assay buffer (137 mM NaCl, 4 mM KCl, 1.8 mM CaCl2, 10 mM HEPES (pH 7.2), 10 mM Glucose, 0.1% BSA). Then, a loading buffer (assay buffer added with 2.5 uM Fluo-4AM, 2 mM Amaranth, 1 mM Tartrazine) was added at 25 μL/well, and loading was performed in the incubator for 30 min, and at room temperature for 15 min. A solution (25 μL) of the Example compound diluted with the above-mentioned assay buffer at 30 μM (final concentration 10 μM) was added, and the cells were stood for 15 min at room temperature. Using FLIPR (Molecular Devices), 25 μL of an assay buffer containing 30 μM glutamic acid, 30 μM glycine was added, and the fluorescence signal was measured every 3 seconds for 5 min. The inhibitory activity was calculated as a relative activity value (inhibitory rate) that inhibits 100% of the cumulative value of the fluorescence value of a well added with a buffer free of glutamic acid, glycine, relative to the cumulative value of the fluorescence value of each well.

Row | Compound | inhibition at 10 µM
1 | Cc1ccc2nn(C)cc2c1CNC(=O)c1ccc(OC(F)(F)F)cc1 [Example 1, N-((2,5-dimethyl-2H-indazol-4-yl)methyl)-4-(trifluoromethoxy)benzamide] | 82%
2 | Cc1ccc2[nH]ncc2c1CNC(=O)c1ccc(OC(F)(F)F)cc1 [Example 2, N-((5-methyl-1H-indazol-4-yl)methyl)-4-(trifluoromethoxy)benzamide] | 92%
3 | Cc1ccc2[nH]cnc2c1CNC(=O)c1ccc(OC(F)(F)F)cc1 [Example 3, N-((5-methyl-1H-benzimidazol-4-yl)methyl)-4-(trifluoromethoxy)benzamide] | 97%
4 | O=C(NCc1c(I)ccc2[nH]ncc12)c1ccc(OC(F)(F)F)cc1 [Example 4, N-((5-iodo-1H-indazol-4-yl)methyl)-4-(trifluoromethoxy)benzamide] | 87%
5 | O=C(NCc1c(C(F)(F)F)ccc2[nH]ncc12)c1ccc(OC(F)(F)F)cc1 [Example 5, 4-(trifluoromethoxy)-N-((5-(trifluoromethyl)-1H-indazol-4-yl)methyl)benzamide] | 85%
6 | COc1ccc2[nH]ncc2c1CNC(=O)c1ccc(OC(F)(F)F)cc1 [Example 6, N-((5-methoxy-1H-indazol-4-yl)methyl)-4-(trifluoromethoxy)benzamide] | 91%
7 | O=C(NCc1cccc2[nH]ncc12)c1ccc(OC(F)(F)F)cc1 [Example 7, N-(1H-indazol-4-ylmethyl)-4-(trifluoromethoxy)benzamide] | 93%
8 | COc1ccc2ncn(C)c2c1CNC(=O)c1cc(F)c(OC)c(F)c1 [Example 8, 3,5-Difluoro-4-methoxy-N-((6-methoxy-1-methyl-1H-benzimidazol-7-yl)methyl)benzamide] | 92%
9 | COc1ccc2ncn(C)c2c1CNC(=O)c1cc(F)c(C)c(F)c1 [Example 9, 3,5-difluoro-N-((6-methoxy-1-methyl-1H-benzimidazol-7-yl)methyl)-4-methylbenzamide] | 92%
10 | COc1ccc2ncn(C)c2c1CNC(=O)c1cnc(OC)c(F)c1 [Example 10, 5-fluoro-6-methoxy-N-((6-methoxy-1-methyl-1H-benzimidazol-7-yl)methyl)nicotinamide] | 92%
11 | COc1ccc(C(=O)NCc2c(OC)ccc3ncn(C)c23)cc1F [Example 11, 3-fluoro-4-methoxy-N-((6-methoxy-1-methyl-1H-benzimidazol-7-yl)methyl)benzamide] | 92%
12 | COc1ccc2ncn(C)c2c1CNC(=O)c1ccc(OC(F)(F)F)cc1 [Example 12, N-((6-methoxy-1-methyl-1H-benzimidazol-7-yl)methyl)-4-(trifluoromethoxy)benzamide] | 94%
13 | COc1ccc2ncn(C)c2c1CNC(=O)c1ccc(C(F)(F)F)c(F)c1 [Example 13, 3-fluoro-N-((6-methoxy-1-methyl-1H-benzimidazol-7-yl)methyl)-4-(trifluoromethyl)benzamide] | 94%
14 | COc1ccc2ncn(C)c2c1CNC(=O)c1ccc(C)c(F)c1 [Example 14, 3-fluoro-N-((6-methoxy-1-methyl-1H-benzimidazol-7-yl)methyl)-4-methylbenzamide] | 92%
15 | COc1ccc2ncn(C)c2c1CNC(=O)c1cc(F)c(Cl)c(F)c1 [Example 15, 4-chloro-3,5-difluoro-N-((6-methoxy-1-methyl-1H-benzimidazol-7-yl)methyl)benzamide] | 95%
16 | CCc1ccc2[nH]ncc2c1CNC(=O)c1cc(F)c(OC)c(F)c1 [Example 16, N-((5-ethyl-1H-indazol-4-yl)methyl)-3,5-difluoro-4-methoxybenzamide] | 94%
17 | COc1c(F)cc(C(=O)NCc2c(C3CC3)ccc3[nH]ncc23)cc1F [Example 17, N-((5-cyclopropyl-1H-indazol-4-yl)methyl)-3,5-difluoro-4-methoxybenzamide] | 93%
18 | COc1ccc2ncn(C)c2c1CNC(=O)c1cc(F)c(F)c(Cl)c1 [Example 18, 3-chloro-4,5-difluoro-N-((6-methoxy-1-methyl-1H-benzimidazol-7-yl)methyl)benzamide] | 87%

Row | Compound | inhibition at 10 µM
19 | COc1ncc(C(=O)NCc2c(C)ccc3ncn(C)c23)cc1F [Example 19, N-((1,6-dimethyl-1H-benzimidazol-7-yl)-methyl)-5-fluoro-6-methoxynicotinamide] | 83%
20 | COc1ncc(C(=O)NCc2c(C3CC3)ccc3ncn(C)c23)cc1F [Example 20, N-((6-cyclopropyl-1-methyl-1H-benzimidazol-7-yl)methyl)-5-fluoro-6-methoxynicotinamide] | 90%
21 | COc1c(F)cc(C(=O)NCc2c(C3CC3)ccc3ncn(C)c23)cc1F [Example 21] | 91%
22 | CCc1ccc2ncn(C)c2c1CNC(=O)c1cnc(OC)c(F)c1 [Example 22, N-((6-ethyl-1-methyl-1H-benzimidazol-7-yl)-methyl)-5-fluoro-6-methoxynicotinamide] | 90%
23 | CCc1ccc2ncn(C)c2c1CNC(=O)c1cc(F)c(OC)c(F)c1 [Example 23, N-((6-ethyl-1-methyl-1H-benzimidazol-7-yl)-methyl)-3,5-difluoro-4-methoxybenzamide] | 93%
24 | COc1ccc2ncn(C)c2c1CNC(=O)c1cc(F)c(C(F)(F)F)c(F)c1 [Example 24, 3,5-difluoro-N-((6-methoxy-1-methyl-1H-benzimidazol-7-yl)-methyl)-4-(trifluoro-methyl)benzaraide] | 90%
25 | COc1c(F)cc(C(=O)NCc2c(C)ccc3ncn(C)c23)cc1F [Example 25, N-((1,6-dimethyl-1H-benzimidazol-7-yl)-methyl)-3,5-difluoro-4-methoxybenzamide] | 92%
26 | Cc1ccc2ncn(C)c2c1CNC(=O)c1cc(F)c(C(F)(F)F)c(F)c1 [Example 26, N-((1,6-dimethyl-1H-benzimidazol-7-yl)-methyl)-3,5-difluoro-4-(trifluoromethyl)benzamide] | 66%
27 | COc1ccc2ncn(C)c2c1CNC(=O)c1csc(C)c1 [Example 27, N-((6-methoxy-1-methyl-1H-benzimidazol-7-yl)-methyl)-5-methylthiophene-3-carboxamide] | 82%
28 | COc1ccc2ncn(C)c2c1CNC(=O)c1csc(Cl)c1 [Example 28, 5-chloro-N-((6-methoxy-1-methyl-1H-benzimidazol-7-yl)nethyl)thiophene-3-carboxamide] | 90%
29 | CCc1cc(C(=O)NCc2c(OC)ccc3ncn(C)c23)cs1 [Example 29] | 91%
30 | Cc1ccc2ncn(C)c2c1CNC(=O)c1ccc(OC(F)(F)F)c(F)c1 [Example 30, N-((1,6-dimethyl-1H-benzimidazol-7-yl)-methyl)-3-fluoro-4-(trifluoromethoxy)-benzamide] | 90%
31 | Cc1ccc2ncn(C)c2c1CNC(=O)c1ccc(OC(F)F)c(Cl)c1 [Example 31, 3-chloro-4-(difluoromethoxy)-N-((1,6-dimethyl-1H-benzimidazol-7-yl)methyl)benzamide] | 91%
32 | COc1ccc2ncn(C)c2c1CNC(=O)c1ccc(C)s1 [Example 32, N-((6-methoxy-1-methyl-1H-benzimidazol-7-yl)methyl)-5-methylthiophene-2-carboxamide] | 77%
33 | COc1ccc2ncn(C)c2c1CNC(=O)Cc1cccs1 [Example 33, N-((6-methoxy-1-methyl-1H-benzimidazol-7-yl)methyl)-2-(2-thienyl)acetamide] | 86%
34 | COc1ccc(C(=O)NCc2c(OC)ccc3ncn(C)c23)cc1Cl [Example 34, 3-chloro-4-methoxy-N-((6-methoxy-1-methyl-1H-benzimidazol-7-yl)methyl)benzamide] | 89%
35 | COc1ccc2ncn(C)c2c1CNC(=O)c1cc(C)c(OC)c(C)c1 [Example 35, 4-methoxy-N-((6-methoxyl-methyl-1H-benzimidazol-7-yl)methyl)-3,5-dimethylbenzamide] | 77%
36 | COc1ccc2ncn(C)c2c1CNC(=O)c1ccc(Cl)s1 [Example 36, 5-chloro-N-((6-methoxy-1-methyl-1H-benzimidazol-7-yl)methyl)-thiophene-2-carboxamide] | 89%
